Test results: patent US12589087B2, “Enantiomer selective action on neurotransmission” (The Board of Trustees of the Leland Stanford Junior …, priority 2021, dated 2026)

What was measured:
[1] = system: murine primary cerebral cortical neuron cultures; assay: Neuronal transport and metabolism of 2MeGln; format: cell-based, mouse; settings: 1 mM substrate, 2 h, 37° C., neurons
Protocol: The procedure was adapted from an existing protocol. Wild-type (WT) C57BL/6J mating pairs were housed according to Stanford IACUC protocol. On day P0, pups were euthanized and brains dissected in cold HBSS (without Ca^2+ or Mg^2+). The forebrain was microdissected to isolate the cortex and hippocampus. These brain regions were minced in cold HBSS before trypsinization at 37° C. for 9 minutes, followed by trituration, through 2 glass polished Pasteur pipettes. The resulting cell suspension was passed through a 100 μm filter to isolate single cells which were sedimented at 250 g for 5 minutes. The cell pellet was then resuspended in complete Neural Basal Media (Neural Basal Media+Glutamax+B-27 Plus Supplement+Pen/Strep)+10% FBS, counted using a hemocytometer and plated at 1×10^6 cells per mL into a 24 well plate (1 mL per well) coated with poly-D-lysine and laminin. Cultures were grown at 37° C./5% CO2 in a tissue culture incubator. Media was exchanged 50% on day 1 in vitro (1 DIV) with fresh complete Neural Basal Media without FBS and thereafter every other day with the same media. On 3 DIV the media was spiked with 2 μM AraC to limit glial growth. On 10 DIV the media was completely replaced with 500 μL Neural Basal Media containing B-27 Plus Supplement+Pen/Strep without added Glutamax but instead containing 1 mM substrate at 37° C. for 2 h. […]

[2] = target: T1, human glutaminase GLS1 (Homo sapiens, UniProt O94925); assay: Catalysis of 2MeGln hydrolysis by GLS1 glutaminase; format: biochemical; settings: 10 mM substrate, 5 ng/mL enzyme, phosphate pH 7.4
T1 construct: purchased Sigma SRP0516
T1 sequence (O94925 55-669): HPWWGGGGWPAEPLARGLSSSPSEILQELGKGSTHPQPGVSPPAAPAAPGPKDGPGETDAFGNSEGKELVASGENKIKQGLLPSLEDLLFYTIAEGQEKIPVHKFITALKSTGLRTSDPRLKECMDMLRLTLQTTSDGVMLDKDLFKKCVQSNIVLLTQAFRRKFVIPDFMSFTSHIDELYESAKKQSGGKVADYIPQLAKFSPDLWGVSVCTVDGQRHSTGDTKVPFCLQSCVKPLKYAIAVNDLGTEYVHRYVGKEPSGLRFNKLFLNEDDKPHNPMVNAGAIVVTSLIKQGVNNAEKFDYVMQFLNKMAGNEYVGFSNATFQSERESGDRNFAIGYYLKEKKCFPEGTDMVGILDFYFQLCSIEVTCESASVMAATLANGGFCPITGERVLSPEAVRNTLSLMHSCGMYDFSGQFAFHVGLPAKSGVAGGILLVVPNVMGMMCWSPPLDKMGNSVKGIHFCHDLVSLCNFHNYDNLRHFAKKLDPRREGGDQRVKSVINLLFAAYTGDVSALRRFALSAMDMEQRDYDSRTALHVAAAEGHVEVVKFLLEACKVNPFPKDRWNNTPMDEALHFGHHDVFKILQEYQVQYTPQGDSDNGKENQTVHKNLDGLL
Protocol: The procedure was adapted from an existing protocol. To a reaction mixture in a 1.5 mL microcentrifuge tube containing 10 mM rac-2MeGln or L-Gln-^13C2 in 100 mM phosphate pH 7.4 buffer made in 20% atom ^18O water, recombinant GLS1 (final concentration: 5 ng/mL) was added. The tubes were incubated in a preheated thermomixer at 37° C. and periodically shaken at 600 rpm (30 s on, 30 s off). 5 μL aliquots were collected in triplicate every 5 min and immediately diluted with 195 μL of cold 60% ACN containing 10 μM Glu-d5 and Gln-d5 as internal standards in a 96 well plate. After collecting all samples, the plate was shaken at 1000 rpm for 5 min at room temperature, and then stored at −80° C. Before analysis the plate was thawed and 10 μL aliquots of the extracted reaction mixtures were diluted with 190 μL of 90% acetonitrile.
The quantification of the newly formed 2MeGlu in the presence of the preexisting trace amounts was performed in the following way. Peak area ratio of Glu-^13C2 to Glu-^13C2^18O was calculated in all samples containing Glu-^13C2. The mean ratio value was then applied to calculate the hypothetical peak area of the newly formed 2MeGlu based on the directly measured 2MeGlu-^18O peak area. The ratio of the newly formed 2MeGlu peak area and the total 2MeGlu peak area was applied to calculate the concentration of the newly formed 2MeGlu from the total 2MeGlu concentration determined directly using the calibration curve.

NC(=O)CC[C@H](N)C(=O)O [Gln, L-glutamine, reference compound]
intracellular [1,2-13C]Gln, lower than 2MeGln in corresponding samples [1]: 2 fold | apparent reaction rate of GLS1 hydrolysis [2]: 65 µM/min
